# Source: patent US12319672B2, “Alpha-D-galactopyranoside derivatives” (Idorsia Pharmaceuticals Ltd, priority 2019, dated 2025)
# pIC50: −log10 of the molar value.
# Key:
# human Gal-3 (hGal-3) = human Gal-3 (hGal-3) (Homo sapiens (Human), UniProt P17931); experiment: Competitive binding assay: binding of biotinylated hGal-3 to microplate-adsorbed asialofetuin (ASF); conditions: Activity on hGal-3; mean values of several measurements
# Outline: (§1)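 Spectrophotometric readout (streptavidin-peroxidase, ABTS) of biotinylated galectin retained on ASF-coated wells. Biotinylated hGal-1 or hGal-3, 300-1000 ng/mL, co-incubated with test compound 3 h at 4° C, then washed. Mean IC50 from repeat runs.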
# human Gal-1 (hGal-1) = experiment: Competitive binding assay: binding of biotinylated hGal-1 to microplate-adsorbed asialofetuin (ASF); conditions: Activities on hGal-1; mean values of several measurements
# human Gal-1 (hGal-1), sequence (P09382 2-135 limits assumed): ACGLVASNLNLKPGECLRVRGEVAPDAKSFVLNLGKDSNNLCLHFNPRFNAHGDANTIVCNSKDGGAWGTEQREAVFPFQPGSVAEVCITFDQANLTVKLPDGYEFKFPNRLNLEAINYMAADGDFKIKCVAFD
# Outline: as §1
# human Gal-3 (hGal-3), sequence (P17931 whole entry): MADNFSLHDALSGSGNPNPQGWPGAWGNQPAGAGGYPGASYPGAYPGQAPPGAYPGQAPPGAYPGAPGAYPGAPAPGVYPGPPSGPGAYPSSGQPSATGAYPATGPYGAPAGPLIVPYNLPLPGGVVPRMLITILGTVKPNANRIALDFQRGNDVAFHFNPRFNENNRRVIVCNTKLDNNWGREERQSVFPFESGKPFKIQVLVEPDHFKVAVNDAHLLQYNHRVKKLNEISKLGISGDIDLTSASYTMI
pIC50 (human Gal-3 (hGal-3)),pIC50 (human Gal-1 (hGal-1)),Structure (SMILES)
7.27,6.51,"CCN=S1(=O)CCC(n2cc(C[C@H]3O[C@H](CO)[C@H](O)[C@H](n4cc(-c5cc(F)c(F)c(F)c5)nn4)[C@H]3OC)nn2)CC1 (stereo partly drawn) [Example 4.24, 1-(ethylimino)-4-(4-(((2R,3R,4S,5R,6R)-5-hydroxy-6-(hydroxymethyl)-3-methoxy-4-(4-(3,4,5-trifluorophenyl)-1H-1,2,3-triazol-1-yl)tetrahydro-2H-pyran-2-yl)methyl)-1H-1,2,3-triazol-1-yl)hexahydro-1l6-thiopyran 1-oxide]"
7.72,6.24,"CO[C@@H]1[C@@H](n2cc(-c3ccc(Br)c(F)c3)nn2)[C@@H](O)[C@@H](CO)O[C@@H]1Cc1cn(C2CCN(C(=O)OCc3ccccc3)CC2)nn1 [Example 4.36, benzyl 4-(4-(((2R,3R,4S,5R,6R)-4-(4-(4-bromo-3-fluorophenyl)-1H-1,2,3-triazol-1-yl)-5-hydroxy-6-(hydroxymethyl)-3-methoxytetrahydro-2H-pyran-2-yl)methyl)-1H-1,2,3-triazol-1-yl)piperidine-1-carboxylate]"
7.34,6.21,"COC(=O)N1CCC(c2cc(C[C@H]3O[C@H](CO)[C@H](O)[C@H](n4cc(-c5cc(F)c(F)c(F)c5)nn4)[C@H]3OC)no2)CC1 [Example 3.32, methyl 4-(3-(((2R,3R,4S,5R,6R)-5-hydroxy-6-(hydroxymethyl)-3-methoxy-4-(4-(3,4,5-trifluorophenyl)-1H-1,2,3-triazol-1-yl)tetrahydro-2H-pyran-2-yl)methyl)isoxazol-5-yl)piperidine-1-carboxylate]"
6.64,5.51,CO[C@@H]1[C@@H](n2cc(-c3cc(F)c(F)c(F)c3)nn2)[C@@H](O)[C@@H](CO)O[C@@H]1Cc1cc(C2(C)CCCC2)no1 [Ex 1.286]
7.51,6.02,"CO[C@@H]1[C@@H](n2cc(-c3ccc(Cl)c(F)c3F)nn2)[C@@H](O)[C@@H](CO)O[C@@H]1Cn1cc(C(C)(C)C)nn1 [Example 4.55, (2R,3R,4S,5R,6R)-6-((4-(tert-butyl)-1H-1,2,3-triazol-1-yl)methyl)-4-(4-(4-chloro-2,3-difluorophenyl)-1H-1,2,3-triazol-1-yl)-2-(hydroxymethyl)-5-methoxytetrahydro-2H-pyran-3-ol]"
6.52,5.89,"CCO[C@@H]1[C@@H](n2cc(-c3cc(F)c(F)c(F)c3)nn2)[C@@H](O)[C@@H](CO)O[C@@H]1CC1CC(C2CCN(C(=O)OC(C)(C)C)CC2)=NO1 (mixture of isomers) [Example 2.31, tert-butyl 4-((RS)-5-(((2R,3R,4S,5R,6R)-3-ethoxy-5-hydroxy-6-(hydroxymethyl)-4-(4-(3,4,5-trifluorophenyl)-1H-1,2,3-triazol-1-yl)tetrahydro-2H-pyran-2-yl)methyl)-4,5-dihydroisoxazol-3-yl)piperidine-1-carboxylate]"
7.60,6.37,"CO[C@@H]1[C@@H](n2cc(-c3ccc(Cl)c(F)c3)nn2)[C@@H](O)[C@@H](CO)O[C@@H]1Cc1cn(C2CCN(C(=O)OCc3ccccc3)CC2)nn1 [Example 4.34, benzyl 4-(4-(((2R,3R,4S,5R,6R)-4-(4-(4-chloro-3-fluorophenyl)-1H-1,2,3-triazol-1-yl)-5-hydroxy-6-(hydroxymethyl)-3-methoxytetrahydro-2H-pyran-2-yl)methyl)-1H-1,2,3-triazol-1-yl)piperidine-1-carboxylate]"
6.62,5.41,"CO[C@@H]1[C@@H](n2cc(-c3cc(F)c(F)c(F)c3)nn2)[C@@H](O)[C@@H](CO)O[C@@H]1Cn1cc(C2(C)CCCC2)nn1 [Example 4.49, (2R,3R,4S,5R,6R)-2-(hydroxymethyl)-5-methoxy-6-((4-(1-methylcyclopentyl)-1H-1,2,3-triazol-1-yl)methyl)-4-(4-(3,4,5-trifluorophenyl)-1H-1,2,3-triazol-1-yl)tetrahydro-2H-pyran-3-ol]"
6.85,4.87,"CC(=O)O[C@@H]1[C@@H](n2cc(-c3cc(F)c(F)c(F)c3)nn2)[C@@H](O)[C@@H](CO)O[C@@H]1Cc1cc(C2CCNCC2)on1 [Example 3.15, (2R,3R,4S,5R,6R)-5-hydroxy-6-(hydroxymethyl)-2-((5-(piperidin-4-yl)isoxazol-3-yl)methyl)-4-(4-(3,4,5-trifluorophenyl)-1H-1,2,3-triazol-1-yl)tetrahydro-2H-pyran-3-yl acetate]"
7.07,5.53,"CO[C@@H]1[C@@H](n2cc(-c3cc(F)c(F)c(F)c3)nn2)[C@@H](O)[C@@H](CO)O[C@@H]1Cc1cn(C2CCCCC2)nn1 [Example 4.30, (2R,3R,4S,5R,6R)-6-((1-cyclohexyl-1H-1,2,3-triazol-4-yl)methyl)-2-(hydroxymethyl)-5-methoxy-4-(4-(3,4,5-trifluorophenyl)-1H-1,2,3-triazol-1-yl)tetrahydro-2H-pyran-3-ol]"

# The next lines start with the molecule.
Structure (SMILES),pIC50 (human Gal-3 (hGal-3)),pIC50 (human Gal-1 (hGal-1))
OC[C@H]1O[C@H](CC2CC(C3CCOCC3)=NO2)[C@H](O)[C@@H](n2cc(-c3cc(F)c(F)c(F)c3)nn2)[C@H]1O (some centres unmarked) [Ex 1.22],6.37,5.35
CO[C@@H]1[C@@H](n2cc(-c3cc(F)c(F)c(F)c3)nn2)[C@@H](O)[C@@H](CO)O[C@@H]1Cc1cc(C2(C)CC2)no1 [Ex 1.215],7.00,6.21
CO[C@@H]1[C@@H](n2cc(-c3ccc(F)c(F)c3F)nn2)[C@@H](O)[C@@H](CO)O[C@@H]1Cc1cc(C2(O)CCCCC2)on1 [Ex 1.233],7.06,5.88
CO[C@@H]1[C@@H](n2cc(-c3cc(F)c(C)cc3F)nn2)[C@@H](O)[C@@H](CO)O[C@@H]1Cc1cc(C(C)(C)C)on1 [Ex 1.247],6.68,5.64
CO[C@@H]1[C@@H](n2cc(-c3cc(F)c(C#N)c(F)c3)nn2)[C@@H](O)[C@@H](CO)O[C@@H]1CC1CC(C2CCN(C(=O)OC(C)(C)C)CC2)=NO1 (some centres unmarked) [Ex 1.223],6.42,4.78
CO[C@@H]1[C@@H](n2cc(-c3ccc(Cl)c(F)c3)nn2)[C@@H](O)[C@@H](CO)O[C@@H]1Cc1cc(C2CCN(C(=O)OC(C)(C)C)CC2)on1 [Ex 1.121],7.09,5.96
CO[C@@H]1[C@@H](n2cc(-c3cc(F)c(Cl)c(F)c3)nn2)[C@@H](O)[C@@H](CO)O[C@@H]1Cc1cc(C2CCOCC2)on1 [Ex 1.185],6.72,5.84
CO[C@@H]1[C@@H](n2cc(-c3ccc(Cl)c(F)c3F)nn2)[C@@H](O)[C@@H](CO)O[C@@H]1Cc1cc(C2CCC2)on1 [Ex 1.227],7.11,4.78
CC(C)(O)C1CC(C[C@H]2O[C@H](CO)[C@H](O)[C@H](n3cc(-c4cc(F)c(F)c(F)c4)nn3)[C@H]2O)=NO1 (some centres unmarked) [Ex 1.39],6.15,5.00
CO[C@@H]1[C@@H](n2cc(-c3cc(F)c(F)c(F)c3)nn2)[C@@H](O)[C@@H](CO)O[C@@H]1Cc1cc(C2CCC2)on1 [Ex 1.74],6.74,5.50
CO[C@@H]1[C@@H](n2cc(-c3cc(F)c(F)c(F)c3)nn2)[C@@H](O)[C@@H](CO)O[C@@H]1Cc1cc(C2CCCC2)no1 [Ex 1.222],6.96,5.10
CO[C@@H]1[C@@H](n2cc(-c3ccc(Cl)c(F)c3F)nn2)[C@@H](O)[C@@H](CO)O[C@@H]1Cc1cc(C2CCCC2)on1 [Ex 1.245],7.17,5.73
